Test system: A/England/195/2009 (H1N1), M2/N31
Type: cell-based
Settings: 100 μM

SMILES: NC1C2CC3CC(C2)CC1C3 (stereo not shown) [Compound 3]
- % block after 30 min: 16 (100 μM; 1) %
